Experimental data as given in patent US20250059205A1, “Heterocyclic Compounds and Methods of Use” (AMGEN INC., priority 2021, published 2025).
Like-named read-outs stand apart in the source and are kept apart here.

How the values were obtained:
[1] = target: His-tagged KRAS G12D protein (Homo sapiens, UniProt P01116, G12D); experiment: KRAS G12D TR-FRET Assay; type: binding
Description: Compounds of interest were prepared in a dose-response titration in DMSO, and 80 nL were added via Labcyte Echo to each well of a 384-well plate (Perkin Elmer 6008280). […] The plate was incubated for 30 minutes at room temperature. Biotinylated KRPep-2d substrate (Amgen) was diluted to 20 nM in Assay Buffer and 2 μL was added to all wells and incubated for 1 h at room temperature. Detection Reagent (0.4 nM LANCE Eu-W1024 Anti-6xHis (Perkin Elmer AD0401), 5 nM streptavidin-d2 (Cisbio 610SADLA)) was prepared in Assay Buffer, then 4 μL was added to the plate and incubated for 1 h at room temperature. Plates were read using PerkinElmer EnVision (ex: 320 nm, em1: 665 nm, em2: 615 nm) and em1/em2 data was used to generate curve fits using a 4-parameter logistic model to calculate IC50 values.

[2] = target: GDP-bound KRAS protein (aa 1-169), containing both G12D and C118A amino acid substitutions (Homo sapiens, UniProt P01116, C118A/G12D); experiment: KRAS G12D Coupled Nucleotide Exchange Assay; type: biochemical; conditions: 2 h compound pre-incubation
Chain of GDP-bound KRAS protein (aa 1-169), containing both G12D and C118A amino acid substitutions (P01116 1-169 isoform P01116-2 G12D/C118A): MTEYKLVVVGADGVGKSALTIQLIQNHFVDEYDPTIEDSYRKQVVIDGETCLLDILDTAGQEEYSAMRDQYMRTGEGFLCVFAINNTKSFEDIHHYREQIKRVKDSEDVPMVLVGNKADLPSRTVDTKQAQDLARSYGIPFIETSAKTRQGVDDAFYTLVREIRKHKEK
Description: Following compound pre-incubation, purified SOS protein (aa 564-1049) and GTP (Roche 10106399001) were added to the assay wells and incubated for an additional 30 min. […] The assay plates were then read on a PerkinElmer EnVision Multilabel Reader, using AlphaScreen® technology, and data were analyzed using a 4-parameter logistic model to calculate IC50 values.

[3] = test system: Phosphorylation of ERK1/2 in AsPC-1 cells; experiment: Phospho-ERK1/2 MSD Assay (AsPC-1 cells); type: cell-based; conditions: Homo sapiens, read-out: p-ERK (AsPC-1 cells) IC50
Description: AsPC-1 (ATCC® CRL-1682™) cells were cultured in RPMI 1640 Medium (ThermoFisher Scientific 11875093) containing 10% fetal bovine serum (ThermoFisher Scientific 16000044) and 1× penicillin-streptomycin-glutamine (ThermoFisher Scientific 10378016). Sixteen hours prior to compound treatment, AsPC-1 cells were seeded in 96-well cell culture plates at a density of 25,000 cells/well and incubated at 37° C., 5% CO2. A compound dose-response titration was diluted in growth media, added to appropriate wells of a cell culture plate, and then incubated at 37° C., 5% CO2 for 2 hours. Following compound treatment, cells were washed with ice-cold Dulbecco's phosphate-buffered saline, no Ca^2+ or Mg^2+ (ThermoFisher Scientific 14190144), and then lysed in RIPA buffer (50 mM Tris-HCl pH 7.5, 1% Igepal, 0.5% sodium deoxycholate, 150 mM NaCl, and 0.5% sodium dodecyl sulfate) containing protease inhibitors (Roche 4693132001) and phosphatase inhibitors (Roche 4906837001). Phosphorylation of ERK1/2 in compound-treated lysates was assayed using Phospho-ERK1/2 Whole Cell Lysate kits (Meso Scale Discovery K151DWD) according to the manufacturer's protocol. Assay plates were read on a Meso Scale Discovery Sector Imager 6000, and data were analyzed using a 4-parameter logistic model to calculate IC50 values.

Chain of His-tagged KRAS G12D protein (P01116 1-188 isoform P01116-2 G12D): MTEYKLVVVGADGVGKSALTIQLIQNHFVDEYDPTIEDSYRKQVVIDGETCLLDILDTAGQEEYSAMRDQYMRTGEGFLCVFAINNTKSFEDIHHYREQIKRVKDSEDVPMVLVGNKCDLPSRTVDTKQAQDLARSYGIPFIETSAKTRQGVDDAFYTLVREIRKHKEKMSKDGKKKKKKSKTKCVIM

Row | Compound | IC50 [1] | Avg 2 h Coupled Exchange IC50 [2] | IC50 ([3]; ASPC1, 2 h, 2 hours treatment) | IC50 ([3]; ASPC1, 2 hours treatment)
1 | N#Cc1c(OC[C@@]23CCCN2C[C@H](F)C3)nc2c(F)c(-c3cc(O)cc4ccccc34)c(Cl)cc2c1N1C[C@H]2CC[C@@H](C1)N2 [Example 61, 4-((1R,5S)-3,8-diazabicyclo[3.2. 1]octan-3-yl)-6-chloro-8-fluoro-2-(((2R,7aS)-2-fluorotetrahydro-1H-pyrrolizin-7a(5H)-yl)methoxy)-7-(3-hydroxynaphthalen-1-yl)quinoline-3-carbonitrile] | 2560 nM | 1670 nM | – | –
2 | N#Cc1c(OC[C@@]23CCCN2C[C@H](F)C3)nc2c(F)c(-c3cc(O)cc4ccccc34)ccc2c1N1C[C@H]2CC[C@@H](C1)N2 [Example 62, 4-((1R,5S)-3,8-diazabicyclo[3.2. 1]octan-3-yl)-8-fluoro-2-(((2R,7aS)-2-fluorotetrahydro-1H-pyrrolizin-7a(5H)-yl)methoxy)-7-(3-hydroxynaphthalen-1-yl)quinoline-3-carbonitrile] | 2650 nM | 1170 nM | – | –
3 | Cn1ncc2cccc(-c3ccc4c(N5C[C@H]6CC[C@@H](C5)N6)nc(OC[C@@]56CCCN5C[C@H](F)C6)nc4c3)c21 [Example 66, 4-((1R,5S)-3,8-diazabicyclo [3.2. 1]octan-3-yl)-2-(((2R,7aS)-2-fluorotetrahydro-1H-pyrrolizin-7a(5H)-yl)methoxy)-7-(1-methyl-1H-indazol-7-yl)quinazoline] | 940 nM | 300 nM | – | –
4 | CCc1c(F)ccc2cc(O)cc(-c3ccc4c(N5C[C@H]6CC[C@@](F)(C5)N6)nc(OC[C@@]56CCCN5C[C@H](F)C6)nc4c3F)c12 [Example 179, 5-ethyl-6-fluoro-4-(8-fluoro-4-((1R,5R)-1-fluoro-3,8-diazabicyclo[3.2.1]octan-3-yl)-2-(((2R,7aS)-2-fluorotetrahydro-1H-pyrrolizin-7a(5H)-yl)methoxy)quinazolin-7-yl)naphthalen-2-ol] | 2 nM | 4 nM | 46 nM | –
5 | CCc1c(F)ccc2cc(O)cc(-c3ccc4c(N5C[C@H]6CC[C@@H](C5)N6)cc(OC[C@@]56CCCN5C[C@H](F)C6)nc4c3)c12 [Example 210, 4-(4-((1R,5S)-3,8-Diazabicyclo[3.2.1]octan-3-yl)-2-(((2R,7aS)-2-fluorotetrahydro-1H-pyrrolizin-7a(5H)-yl)methoxy)quinolin-7-yl)-5-ethyl-6-fluoronaphthalen-2-ol] | 44 nM | 69 nM | – | –
6 | C=Cc1c(F)ccc2cccc(-c3ccc4c(N5[C@@H]6CC[C@H]5CNC6)nc(OC[C@@]56CCCN5C[C@H](F)C6)nc4c3)c12 [Example 104, 4-((1R,5S)-3,8-diazabicyclo[3.2.1]octan-8-yl)-7-(7-fluoro-8-vinylnaphthalen-1-yl)-2-(((2R,7aS)-2-fluorotetrahydro-1H-pyrrolizin-7a(5H)-yl)methoxy)quinazoline] | 544 nM | 2300 nM | – | –
7 | Oc1cc(-c2ccc3c(C4=CC5CCC(C4)N5)nc(OC[C@@]45CCCN4C[C@H](F)C5)nc3c2)c2ccccc2c1 (some centres unmarked) [Example 108] | 11700 nM | 671 nM | 420 nM | –
8 | Oc1cc(-c2c(F)cc3c(N4[C@@H]5CC[C@H]4CNC5)nc(OC[C@@]45CCCN4C[C@H](F)C5)nc3c2O)c2ccccc2c1 [Example 102, 4-((1R,5S)-3,8-Diazabicyclo[3.2.1]octan-8-yl)-6-fluoro-2-(((2R,7aS)-2-fluorotetrahydro-1H-pyrrolizin-7a(5H)-yl)methoxy)-7-(3-hydroxynaphthalen-1-yl)quinazolin-8-ol] | 144 nM | 55 nM | – | 10100 nM
9 | CCc1c(F)ccc2cc(O)cc(-c3c(F)cc4c(N5C[C@H]6CC[C@@H](C5)N6)nc(OCC5(C)CCC(=O)N5)nc4c3F)c12 (stereo partly drawn) [Example 216, 5-(((4-((1R,5S)-3,8-diazabicyclo[3.2.1]octan-3-yl)-7-(8-ethyl-7-fluoro-3-hydroxynaphthalen-1-yl)-6,8-difluoroquinazolin-2-yl)oxy)methyl)-5-methylpyrrolidin-2-one] | 5 nM | 9 nM | 834 nM | –
10 | CN1C[C@H](F)C[C@H]1COc1nc(N2[C@@H]3CC[C@H]2CNC3)c2cc(F)c(-c3cc(O)cc4ccccc34)c(O)c2n1 [Example 103, 4-((1R,5S)-3,8-diazabicyclo[3.2.1]octan-8-yl)-6-fluoro-2-(((2S,4R)-4-fluoro-1-methylpyrrolidin-2-yl)methoxy)-7-(3-hydroxynaphthalen-1-yl)quinazolin-8-ol] | 1080 nM | 517 nM | – | –
11 | Oc1cc(-c2ccc3c(N4[C@@H]5CC[C@H]4CNC5)nc(OC[C@@]45CCCN4C[C@H](F)C5)nc3c2F)c2cnccc2c1 [Example 31, 8-(4-((1R,5S)-3,8-diazabicyclo[3.2. 1]octan-8-yl)-8-fluoro-2-(((2R,7aS)-2-fluorotetrahydro-1H-pyrrolizin-7a(5H)-yl)methoxy)quinazolin-7-yl)isoquinolin-6-ol] | 546 nM | 259 nM | – | –
12 | CCc1c(F)ccc2cc(O)cc(-c3c(O)cc4c(N5CC6CCC(C5)N6)nc(OCC56CCCN5C[C@H](F)C6)nc4c3F)c12 (atropisomer, axis not shown; (M)) [Example 234, (M)-4-((1R,5S)-3,8-Diazabicyclo[3.2.1]octan-3-yl)-7-(8-ethyl-7-fluoro-3-hydroxynaphthalen-1-yl)-8-fluoro-2-(((2R,7aS)-2-fluorotetrahydro-1H-pyrrolizin-7a(5H)-yl)methoxy)quinazolin-6-ol] | 1 nM | 2 nM | 22 nM | –
13 | Cc1ccc2cn[nH]c2c1-c1ccc2c(N3C[C@H]4CC[C@@H](C3)N4)nc(OC[C@@]34CCCN3C[C@H](F)C4)nc2c1 [Example 67, 4-((1R,5S)-3,8-diazabicyclo[3.2. 1]octan-3-yl)-2-(((2R,7aS)-2-fluorotetrahydro-1H-pyrrolizin-7a(5H)-yl)methoxy)-7-(6-methyl-1H-indazol-7-yl)quinazoline] | 512 nM | 199 nM | – | –
14 | CCc1c(F)ccc2cc(O)cc(-c3ccc4c(N5C[C@@H]6CC[C@](F)(C5)N6)nc(OC[C@@]56CCCN5C[C@H](F)C6)nc4c3F)c12 [Example 178, 5-ethyl-6-fluoro-4-(8-fluoro-4-((1S,5S)-1-fluoro-3,8-diazabicyclo[3.2.1]octan-3-yl)-2-(((2R,7aS)-2-fluorotetrahydro-1H-pyrrolizin-7a(5H)-yl)methoxy)quinazolin-7-yl)naphthalen-2-ol] | 3 nM | 5 nM | 143 nM | –
15 | CN1C[C@H](F)C[C@H]1COc1nc2c(F)c(-c3cc(O)cc4ccccc34)c(Cl)cc2c(N2C[C@H]3CC[C@@H](C2)N3)c1C#N [Example 63, 4-((1R,5S)-3,8-diazabicyclo[3.2. 1]octan-3-yl)-6-chloro-8-fluoro-2-(((2S,4R)-4-fluoro-1-methylpyrrolidin-2-yl)methoxy)-7-(3-hydroxynaphthalen-1-yl)quinoline-3-carbonitrile] | > 25000 nM | 555 nM | – | –
16 | Oc1cc(-c2ccc3c(N4C[C@H]5COC[C@@H](C4)N5)nc(OC[C@@]45CCCN4C[C@H](F)C5)nc3c2F)c2ccccc2c1 [Example 16, 4-(4-((1R,5S)-3-oxa-7,9-diazabicyclo[3.3. 1]nonan-7-yl)-8-fluoro-2-(((2R,7aS)-2-fluorotetrahydro-1H-pyrrolizin-7a(5H)-yl)methoxy)quinazolin-7-yl)naphthalen-2-ol] | 20 nM | 7 nM | 4820 nM | –
17 | Oc1ccc(Cl)c(-c2ccc3c(N4[C@@H]5CC[C@H]4CNC5)nc(OC[C@@]45CCCN4C[C@H](F)C5)nc3c2)c1F [Example 35, 3-(4-((1R,5S)-3,8-diazabicyclo[3.2. 1]octan-8-yl)-2-(((2R,7aS)-2-fluorotetrahydro-1H-pyrrolizin-7a(5H)-yl)methoxy)quinazolin-7-yl)-4-chloro-2-fluorophenol] | 4700 nM | 1820 nM | – | –
